Test results taken from ChEMBL document CHEMBL1201862, “PubChem BioAssay data set” (2004).
The source made the active and inactive calls.

What was measured:
[1] = HEp-2 cell cytotoxicity, dose response, cytotoxicity control for RSV inhibitor project, HTS (AID 2410); type: functional; conditions: human respiratory syncytial virus
Vero [2] = test: cells; type: functional, cell-based; conditions: Chlorocebus sabaeus
Vero [3] = test: cells; type: functional; conditions: Chlorocebus sabaeus
cells [4] = test: cells
[5] = NIH-3T3 fibroblast cytotoxicity, dose response, cytotoxicity control, cell-based, fluorescence, Alamar Blue, secondary assay (AID 2327); type: functional;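 note: NIH-3T3 mouse fibroblasts cultured with fluconazole at 8 µg/mL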
[6] = test system: Streptococcus sp. 'group A'; test: growth inhibition of control SK(-) GAS strain, dose response, counter-screen for streptokinase expression inhibitor project, luminescence, kanamycin, BacTiterGlo, confirmation (AID 1900); type: functional, organism-based
cells [7] = type: functional, cell-based
[8] = C. albicans growth with fluconazole, confirmation, fluorescence, retest (AID 2467); type: functional, cell-based
[9] = Luminescence-based counterscreen assay for KLF5 inhibitors: dose response cell-based high throughput screening assay to identify cytotoxic compounds using the IEC-6 intestinal epithelial cell line. [Related pubchem assays: 1700 (Primary screen.), 1834 (Confirmation screen.), 1858 (Summary AID.), 1905 (Counterscreen.)]; type: functional
cells [10] = type: functional, cell-based; remark: listed apart in the source
Streptococcus = test: Group A Streptococcus viability loss, dose response, counter-screen for streptokinase expression inhibitor project, luminescence, BacTiterGlo (AID 1915); type: functional, organism-based;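 note: potency for reduction of bacterial viability or growth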
INS1 = test: beta cell apoptosis inhibitors, cytokine rescue, dose response, luminescence, retest (AID 449756); type: functional, cell-based; conditions: Rattus norvegicus;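 note: cell death triggered by IL-1 beta plus TNF-alpha plus IFN-gamma mixture; protective hits raise ATP signal compared with cytokine alone wells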
Protein Wnt-3a = Protein Wnt-3a (Mus musculus, UniProt P27467); test: Wnt3a-driven reporter signaling inhibition, dose response, selectivity assay for Gli-SUFU antagonist project, Wnt-LIGHT cells, luminescence (AID 651570); type: functional; conditions: read-out: IC50_Mean;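 note: Wnt-LIGHT reporter cells stimulated with conditioned medium from Wnt3a-producing cells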
[11] = THP-1 cell cytotoxicity, dose response, cytotoxicity control for Vif-APOBEC3G degradation inhibitor project, THP-1 cells (AID 1117359); type: functional; conditions: Human immunodeficiency virus 1, THP-1
[12] = P. falciparum Dd2 growth inhibitors, dose response, SYBR Green, cherry-picked samples (AID 1159567); type: functional, cell-based
[13] = HepG2 cell cytotoxicity, dose response, cytotoxicity control, cherry-picked samples (AID 1159577); type: functional, cell-based
[14] = molecular target: T1, Endoribonuclease toxin MazF (Escherichia coli K-12, UniProt P0AE70); test: MazF toxin RNase activators, dose response, biochemical, fluorescence, single-stranded RNA substrate, uHTS hits (AID 588481); type: functional
T1 sequence (P0AE70 whole entry): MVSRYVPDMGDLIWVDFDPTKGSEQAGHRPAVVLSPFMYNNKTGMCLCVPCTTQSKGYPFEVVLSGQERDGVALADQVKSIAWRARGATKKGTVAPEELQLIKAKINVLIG

[15] = molecular target: T1, Endoribonuclease toxin MazF; test: fluorescent RNA oligo signal without MazF, dose response, counter-screen for MazEF activator project, biochemical, fluorescence, single-stranded RNase substrate (AID 588502); type: functional
[16] = Luminescence-based cell-based high throughput dose response assay to identify activators of the DAF-12 from the parasite S. stercoralis (ssDAF-12).; type: functional
[17] = molecular target: T2, Oxysterols receptor LXR-beta (Homo sapiens, UniProt P55055); test: LXR agonists, Gal4 luciferase reporter, dose response, counter-screen for ssDAF-12 agonist project, cell-based, luminescence, HEK293, S. stercoralis campaign (AID 720737); type: functional; conditions: read-out: IC50 (the source's name)
T2 sequence (P55055 whole entry): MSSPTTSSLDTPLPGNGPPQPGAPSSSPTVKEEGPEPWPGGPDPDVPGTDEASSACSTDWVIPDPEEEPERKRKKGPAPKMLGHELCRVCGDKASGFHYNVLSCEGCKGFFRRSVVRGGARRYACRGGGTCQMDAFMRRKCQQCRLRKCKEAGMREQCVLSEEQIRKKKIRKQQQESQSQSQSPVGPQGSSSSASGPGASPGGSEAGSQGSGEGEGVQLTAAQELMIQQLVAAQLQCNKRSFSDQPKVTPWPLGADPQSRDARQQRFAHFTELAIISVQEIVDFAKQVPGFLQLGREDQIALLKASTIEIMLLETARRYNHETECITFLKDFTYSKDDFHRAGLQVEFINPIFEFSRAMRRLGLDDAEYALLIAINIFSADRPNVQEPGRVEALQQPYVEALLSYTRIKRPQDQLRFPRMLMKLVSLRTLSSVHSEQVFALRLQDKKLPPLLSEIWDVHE

Paired box protein Pax-8 = Paired box protein Pax-8 (Homo sapiens, UniProt Q06710); test: inhibitors of PAX8-driven TPO luciferase reporter, dose response, RMG-I cells, cherry-pick (AID 687027); type: functional, cell-based;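 note: luciferase reporter driven by Pax8 target thyroperoxidase promoter measured by SteadyGlo luminescence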
[18] = NIH:OVCAR-3 ovarian cancer cell cytotoxicity, dose response, PAX8 inhibitor project, plate reader, dry powder samples (AID 743044); type: functional, cell-based
[19] = IGROV1 ovarian cancer cell cytotoxicity, dose response, PAX8 inhibitor project, plate reader, dry powder samples (AID 743043); type: functional, cell-based; conditions: IGROV-1
[20] = cytotoxicity in OVCAR8 ovarian cancer cells, dose response, PAX8 project, cell-based, plate reader, dry powder samples (AID 743197); type: functional; conditions: OVCAR-8
[21] = molecular target: Voltage-dependent T-type calcium channel subunit alpha-1H (Homo sapiens, UniProt O95180); type: functional;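 note: channel activity triggered by adding a high calcium stimulation buffer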
Estrogen receptor = molecular target: T3, Estrogen receptor (Homo sapiens, UniProt P03372);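 note: potency for inhibiting coactivator peptide recruitment to the receptor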
T3 sequence (P03372 whole entry): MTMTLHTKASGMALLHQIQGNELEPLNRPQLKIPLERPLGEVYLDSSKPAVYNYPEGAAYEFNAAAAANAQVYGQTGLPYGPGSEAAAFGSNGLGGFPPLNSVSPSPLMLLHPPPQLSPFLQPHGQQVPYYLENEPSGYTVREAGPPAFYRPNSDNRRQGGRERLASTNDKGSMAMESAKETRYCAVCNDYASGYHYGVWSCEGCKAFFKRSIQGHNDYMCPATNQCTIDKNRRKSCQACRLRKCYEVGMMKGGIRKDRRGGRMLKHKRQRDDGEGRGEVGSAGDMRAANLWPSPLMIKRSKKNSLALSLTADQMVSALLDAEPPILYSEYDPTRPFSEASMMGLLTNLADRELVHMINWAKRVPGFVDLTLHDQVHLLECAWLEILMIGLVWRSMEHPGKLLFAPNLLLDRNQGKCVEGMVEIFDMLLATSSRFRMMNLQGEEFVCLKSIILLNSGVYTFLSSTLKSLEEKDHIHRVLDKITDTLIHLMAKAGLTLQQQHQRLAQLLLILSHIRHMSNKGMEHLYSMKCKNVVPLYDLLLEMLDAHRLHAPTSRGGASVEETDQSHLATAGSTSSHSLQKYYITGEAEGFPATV

Estrogen receptor beta [22] = molecular target: T4, Estrogen receptor beta (Homo sapiens, UniProt Q92731);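 note: recombinant ER-beta bound to coactivator SRC1 peptide in presence of estradiol agonist; inhibitors block coactivator peptide binding and lower the FRET signal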
Estrogen receptor beta [23] = molecular target: T4, Estrogen receptor beta; test: ERβ–SRC-3 coactivator interaction inhibitors, confirmation, orthogonal assay, biochemical, ELISA, streptavidin-HRP readout (AID 1060)
[24] = molecular target: Luciferin 4-monooxygenase (Photinus pyralis, UniProt P08659); test: firefly luciferase enzyme inhibitors, dose response, biochemical, luminescence (AID 1891)
[25] = Luminescence Cell-Based Dose Confirmation HTS to Identify Inhibitors of Platelet Dense Granule Release. [Related pubchem assays: 1663 (Primary HTS), 1678 (Summary of Project)]; type: functional

T4 sequence (Q92731 whole entry): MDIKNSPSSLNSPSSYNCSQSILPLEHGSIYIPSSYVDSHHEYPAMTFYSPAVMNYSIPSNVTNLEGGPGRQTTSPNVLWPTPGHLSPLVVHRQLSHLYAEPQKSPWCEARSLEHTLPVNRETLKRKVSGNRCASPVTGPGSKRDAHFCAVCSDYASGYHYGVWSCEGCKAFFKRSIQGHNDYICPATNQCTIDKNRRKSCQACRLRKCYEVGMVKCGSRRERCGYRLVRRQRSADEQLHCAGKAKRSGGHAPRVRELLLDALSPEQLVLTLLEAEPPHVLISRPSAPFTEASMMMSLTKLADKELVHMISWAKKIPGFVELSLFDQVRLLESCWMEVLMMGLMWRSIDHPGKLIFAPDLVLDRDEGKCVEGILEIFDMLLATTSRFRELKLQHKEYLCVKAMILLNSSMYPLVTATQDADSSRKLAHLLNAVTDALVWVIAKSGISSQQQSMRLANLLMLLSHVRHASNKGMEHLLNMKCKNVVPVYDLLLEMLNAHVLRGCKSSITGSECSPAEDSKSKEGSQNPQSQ
Protein Wnt-3a, sequence (P27467 whole entry): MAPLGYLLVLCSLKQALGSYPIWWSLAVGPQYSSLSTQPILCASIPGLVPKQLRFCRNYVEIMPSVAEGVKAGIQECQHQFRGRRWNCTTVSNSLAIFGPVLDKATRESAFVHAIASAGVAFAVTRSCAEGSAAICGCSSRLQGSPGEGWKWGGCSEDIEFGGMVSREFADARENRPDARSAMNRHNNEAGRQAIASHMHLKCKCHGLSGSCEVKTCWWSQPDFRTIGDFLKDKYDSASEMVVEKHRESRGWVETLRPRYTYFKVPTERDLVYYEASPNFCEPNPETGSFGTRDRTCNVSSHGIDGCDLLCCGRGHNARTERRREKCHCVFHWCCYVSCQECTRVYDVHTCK
Luciferin 4-monooxygenase, sequence (P08659 whole entry): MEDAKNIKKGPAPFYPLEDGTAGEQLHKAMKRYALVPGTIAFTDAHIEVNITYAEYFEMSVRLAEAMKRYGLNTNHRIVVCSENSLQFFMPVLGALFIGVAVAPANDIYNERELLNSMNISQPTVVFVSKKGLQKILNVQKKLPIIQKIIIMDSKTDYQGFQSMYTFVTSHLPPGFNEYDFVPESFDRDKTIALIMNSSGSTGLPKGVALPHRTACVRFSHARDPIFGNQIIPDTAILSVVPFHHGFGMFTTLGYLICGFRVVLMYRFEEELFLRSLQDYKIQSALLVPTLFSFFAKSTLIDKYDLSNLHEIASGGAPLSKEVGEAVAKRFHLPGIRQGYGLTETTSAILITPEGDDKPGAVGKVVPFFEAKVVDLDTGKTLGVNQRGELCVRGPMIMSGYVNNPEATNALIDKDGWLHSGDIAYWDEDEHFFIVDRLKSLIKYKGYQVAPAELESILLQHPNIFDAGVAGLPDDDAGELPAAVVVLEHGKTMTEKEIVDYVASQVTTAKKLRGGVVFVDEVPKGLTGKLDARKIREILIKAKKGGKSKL
Voltage-dependent T-type calcium channel subunit alpha-1H, sequence (O95180 whole entry): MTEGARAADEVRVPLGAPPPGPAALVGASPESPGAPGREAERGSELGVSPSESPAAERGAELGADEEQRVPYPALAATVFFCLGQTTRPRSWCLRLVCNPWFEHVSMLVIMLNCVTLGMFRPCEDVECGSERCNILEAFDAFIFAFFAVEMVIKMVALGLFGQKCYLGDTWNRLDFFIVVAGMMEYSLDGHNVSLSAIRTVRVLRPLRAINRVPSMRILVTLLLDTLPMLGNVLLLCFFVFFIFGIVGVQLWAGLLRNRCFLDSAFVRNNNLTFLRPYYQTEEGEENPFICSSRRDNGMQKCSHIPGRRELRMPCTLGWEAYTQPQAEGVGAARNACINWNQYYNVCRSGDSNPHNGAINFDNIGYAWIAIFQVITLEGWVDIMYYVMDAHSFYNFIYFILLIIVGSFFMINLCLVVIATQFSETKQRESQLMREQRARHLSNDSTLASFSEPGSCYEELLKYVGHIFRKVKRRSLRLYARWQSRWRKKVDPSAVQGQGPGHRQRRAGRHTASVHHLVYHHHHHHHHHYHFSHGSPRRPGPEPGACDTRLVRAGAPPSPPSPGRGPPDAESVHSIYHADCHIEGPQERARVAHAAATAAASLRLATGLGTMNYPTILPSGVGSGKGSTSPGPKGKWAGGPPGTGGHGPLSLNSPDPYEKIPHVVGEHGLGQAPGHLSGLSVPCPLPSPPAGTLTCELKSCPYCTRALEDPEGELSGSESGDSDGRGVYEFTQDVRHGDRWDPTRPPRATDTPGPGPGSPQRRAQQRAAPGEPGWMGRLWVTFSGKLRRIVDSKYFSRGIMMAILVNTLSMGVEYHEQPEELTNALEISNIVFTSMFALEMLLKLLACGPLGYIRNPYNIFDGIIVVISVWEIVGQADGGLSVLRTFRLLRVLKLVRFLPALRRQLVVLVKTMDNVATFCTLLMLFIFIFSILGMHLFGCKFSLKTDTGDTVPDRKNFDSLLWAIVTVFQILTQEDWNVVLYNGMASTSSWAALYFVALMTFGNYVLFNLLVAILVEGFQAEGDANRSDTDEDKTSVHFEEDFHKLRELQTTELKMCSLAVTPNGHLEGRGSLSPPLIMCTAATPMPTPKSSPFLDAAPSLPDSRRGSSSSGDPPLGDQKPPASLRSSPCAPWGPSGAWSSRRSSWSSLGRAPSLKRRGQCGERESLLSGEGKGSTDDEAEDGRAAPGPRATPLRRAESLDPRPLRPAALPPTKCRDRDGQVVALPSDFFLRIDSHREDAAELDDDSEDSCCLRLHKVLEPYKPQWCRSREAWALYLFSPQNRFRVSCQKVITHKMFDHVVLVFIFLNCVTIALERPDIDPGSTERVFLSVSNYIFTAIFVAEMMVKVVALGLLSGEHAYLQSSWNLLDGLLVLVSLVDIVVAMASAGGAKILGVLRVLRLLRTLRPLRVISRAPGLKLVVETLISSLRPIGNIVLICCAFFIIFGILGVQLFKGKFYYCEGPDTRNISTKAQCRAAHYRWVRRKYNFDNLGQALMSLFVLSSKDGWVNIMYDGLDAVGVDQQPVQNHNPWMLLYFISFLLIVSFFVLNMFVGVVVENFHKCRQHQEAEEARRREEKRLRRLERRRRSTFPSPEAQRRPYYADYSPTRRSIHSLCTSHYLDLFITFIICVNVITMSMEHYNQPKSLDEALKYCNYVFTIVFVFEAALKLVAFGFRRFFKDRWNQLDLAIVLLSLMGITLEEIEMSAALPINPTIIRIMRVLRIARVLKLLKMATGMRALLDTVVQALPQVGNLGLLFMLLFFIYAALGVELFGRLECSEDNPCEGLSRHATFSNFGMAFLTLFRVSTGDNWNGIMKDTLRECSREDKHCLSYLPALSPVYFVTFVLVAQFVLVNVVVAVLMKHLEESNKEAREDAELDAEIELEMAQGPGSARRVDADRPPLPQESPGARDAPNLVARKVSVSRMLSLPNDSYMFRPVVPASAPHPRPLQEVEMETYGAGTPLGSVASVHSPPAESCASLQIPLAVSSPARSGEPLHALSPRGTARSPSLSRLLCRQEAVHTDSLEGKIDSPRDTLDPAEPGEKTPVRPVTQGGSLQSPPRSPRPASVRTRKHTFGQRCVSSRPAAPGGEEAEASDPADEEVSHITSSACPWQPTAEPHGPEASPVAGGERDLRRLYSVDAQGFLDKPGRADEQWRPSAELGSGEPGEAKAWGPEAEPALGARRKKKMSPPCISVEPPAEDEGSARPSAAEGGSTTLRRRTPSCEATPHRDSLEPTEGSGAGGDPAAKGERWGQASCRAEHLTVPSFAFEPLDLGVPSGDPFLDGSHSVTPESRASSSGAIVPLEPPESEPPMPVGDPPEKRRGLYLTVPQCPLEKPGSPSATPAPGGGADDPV
Paired box protein Pax-8, sequence (Q06710 whole entry): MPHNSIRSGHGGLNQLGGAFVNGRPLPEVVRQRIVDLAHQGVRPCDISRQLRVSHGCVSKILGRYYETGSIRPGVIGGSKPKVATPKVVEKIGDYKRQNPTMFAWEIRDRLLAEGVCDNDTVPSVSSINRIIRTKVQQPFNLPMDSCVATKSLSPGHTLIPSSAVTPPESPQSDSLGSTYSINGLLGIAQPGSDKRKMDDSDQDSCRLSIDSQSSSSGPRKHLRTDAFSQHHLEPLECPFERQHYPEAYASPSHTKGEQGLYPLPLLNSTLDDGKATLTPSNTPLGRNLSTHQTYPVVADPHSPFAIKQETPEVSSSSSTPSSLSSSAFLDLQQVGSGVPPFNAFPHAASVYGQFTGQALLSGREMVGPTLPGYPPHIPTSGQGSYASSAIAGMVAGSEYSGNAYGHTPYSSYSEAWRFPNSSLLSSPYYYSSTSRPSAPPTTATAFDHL

Question: With `CC1=Nc2cc(C(=O)N3CCCC3)ccc2Sc2c(C)ccc(C)c21` as the compound, how does the CC50 [1] read?
Answer: 7.28 µM (active)

Question: And the IC50 (Vero [2])?
Answer: 8.21 µM (active)

Question: And the CC50 (Vero [3])?
Answer: 16.9 µM (active)

Question: And the IC50 (cells [4])?
Answer: 3.34 µM (active)

Question: Which EC50 [5] does the source give for `COc1ccc(OC)c2[nH]c(C(=O)N/N=C/c3ccccc3O)cc12` here?
Answer: > 160 µM (inactive)

Question: What about the EC50 [6] of the same compound?
Answer: 1.96 µM (active)

Question: And the EC50 (cells [7])?
Answer: 12.2 µM (active)

Question: What about the EC50 [8] of the same compound?
Answer: 1.86 µM (active)

Question: And the IC50 [9]?
Answer: 12.5 µM (not active)

Question: And the EC50 (cells [10])?
Answer: > 350 µM (not active)

Question: And the EC50 (Streptococcus)?
Answer: 2.37 µM (active)

Question: What about the AC50 (INS1) of the same compound?
Answer: 2.12 µM (active)

Question: For `CC1CCN(Cc2c(C(=O)N/N=C/c3ccccc3O)nnn2-c2nonc2N)CC1`, which EC50 (cells [7]) is on record?
Answer: 29.5 µM (active)

Question: And the IC50 [9]?
Answer: 4.81 µM (active)

Question: What about the EC50 (cells [10]) of the same compound?
Answer: > 350 µM (not active)

Question: What about the AC50 (INS1) of the same compound?
Answer: 0.9 µM (active)

Question: What about the IC50 (Protein Wnt-3a) of the same compound?
Answer: 20.8 µM (inactive)

Question: For `CCOc1ccc(C(=O)NC(=S)Nc2ccc(N3CCC(C)CC3)cc2)cc1[N+](=O)[O-]`, which CC50 [11] is on record?
Answer: > 40 µM (active)

Question: Which results are given for `O=C(Nc1ccccc1)N1CCCCN2[C@@H](CO)[C@@H](c3ccc(-c4ccccc4)cc3)[C@@H]2C1`?
Answer: AC50 [12]: 4.43 µM (active); AC50 [13]: 9.01 µM (active)

Question: With `CCn1c(C)cc(C=C2C(=O)c3ccccc3C2=O)c1C` as the compound, how does the EC50 [14] read?
Answer: 44.5 µM (inactive)

Question: And the EC50 [15]?
Answer: 62.8 µM (inactive)

Question: What about the IC50 [16] of the same compound?
Answer: > 67.5 µM (inactive)

Question: What about the EC50 [17] of the same compound?
Answer: > 67.5 µM (inactive)

Question: Which AC50 (Paired box protein Pax-8) does the source give for `CCCC#Cc1ccc([C@H]2[C@@H](CO)N3CCCCN(S(=O)(=O)Cc4ccccc4)C[C@H]23)cc1` here?
Answer: 20.5 µM (active)

Question: And the AC50 [18]?
Answer: 23.5 µM (active)

Question: What about the AC50 [19] of the same compound?
Answer: 30.9 µM (active)

Question: And the AC50 [20]?
Answer: > 70 µM (inactive)

Question: What about the AC50 [12] of the same compound?
Answer: 2.67 µM (active)

Question: And the AC50 [13]?
Answer: 11.9 µM (active)

Question: For `Cc1nn(Cc2ccccc2Cl)c(C)c1C(=O)Nc1nnc(C2CC2)s1`, which CC50 [1] is on record?
Answer: 7.49 µM (active)

Question: And the IC50 (Vero [2])?
Answer: 5.21 µM (active)

Question: What about the CC50 (Vero [3]) of the same compound?
Answer: > 25 µM (active)

Question: And the IC50 (cells [4])?
Answer: 3.75 µM (active)

Question: For `COc1ccccc1NC(=O)N1CCc2[nH]c3ccc(F)cc3c2C1`, which CC50 [1] is on record?
Answer: > 50 µM (active)

Question: What about the EC50 [21] of the same compound?
Answer: 5.47 µM (active)

Question: Which results are given for `Cc1ccc(-n2c(=O)c(C#N)cc3c(=O)n4cccc(C)c4nc32)cc1`?
Answer: IC50 (Estrogen receptor): 30.9 µM (not active); IC50 (Estrogen receptor beta [22]): 25.4 µM (active); IC50 (Estrogen receptor beta [23]): < 77 µM (not active)

Question: Which CC50 [1] does the source give for `O=C(CNC(=O)c1cccs1)N=Nc1c(O)[nH]c2ccc([N+](=O)[O-])cc12` here?
Answer: > 50 µM (active)

Question: What about the IC50 (cells [4]) of the same compound?
Answer: 14.6 µM (active)

Question: With `CC(=N)/C(C#N)=C(/O)CSc1nnnn1-c1ccc(C)cc1` as the compound, how does the IC50 (Estrogen receptor beta [22]) read?
Answer: 13.7 µM (active)

Question: And the IC50 (Estrogen receptor beta [23])?
Answer: 0.345 µM (not active)

Question: Which results are given for `COc1cccc(CN(C)C[C@H]2OCc3ccccc3-c3c(n(C)c4ccccc34)C(=O)N([C@@H](C)CO)C[C@H]2C)c1`?
Answer: AC50 [12]: 1.62 µM (active); AC50 [13]: 18 µM (active)

Question: Which AC50 [12] does the source give for `O=S(=O)(c1ccccc1)N1C[C@@H]2N[C@H](C1)[C@@H]2c1ccc(-c2ccc(F)cc2)cc1` here?
Answer: 5.34 µM (active)

Question: What about the AC50 [13] of the same compound?
Answer: 10.9 µM (active)

Question: Which results are given for `COC(=O)[C@]1(C)N[C@H](CN(C)C(C)=O)[C@@H]2C(=O)N(Cc3ccccc3)C(=O)[C@@H]21`?
Answer: IC50 [16]: > 67.5 µM (inactive); EC50 [17]: > 67.5 µM (inactive)

Question: For `Cc1ccc(Nc2nc(N)c3ccccc3n2)cc1Cl`, which EC50 [24] is on record?
Answer: 0.528 µM (active)

Question: What about the EC50 [25] of the same compound?
Answer: 4.99 µM (active)

Question: And the IC50 [16]?
Answer: > 67.6 µM (inactive)

Question: And the EC50 [17]?
Answer: > 67.6 µM (inactive)
